Patent US8691753B2 (priority 2009, dated 2014)

How the values were obtained:
Assay type in all cases: biochemical
[1] = target: MMP-10h (Homo sapiens (Human), UniProt P09238); assay: Inhibition constant (Ki) on MMP-10h; settings: read-out: Ki MMP-10h; human MMP-10
[2] = target: MMP-12h (Homo sapiens (Human), UniProt P39900); assay: Inhibition constant (Ki) on MMP-12h; settings: read-out: Ki MMP-12h; human MMP-12
[3] = target: MMP-14h (Homo sapiens (Human), UniProt P50281); assay: Inhibition constant (Ki) on MMP-14h; settings: read-out: Ki MMP-14h; human MMP-14
Text: (§1) The inhibition constant Ki of these compounds has been determined according to the protocol described by Devel et al, 2006, J. Biol. Chem. (7).
(§2) In this table I and also in table II below, “h” corresponds to human. All of the compounds have therefore been evaluated on human MMPs.

[4] = target: MMP-8h (Homo sapiens (Human), UniProt P22894); assay: Inhibition constant (Ki) on MMP-8h; settings: read-out: Ki MMP-8h; human MMP-8
[5] = target: MMP-3h (Homo sapiens (Human), UniProt P08254); assay: Inhibition constant (Ki) on MMP-3h; settings: read-out: Ki MMP-3h; human MMP-3
Text: as §1, §2

[6] = target: MMP-9h (Homo sapiens (Human), UniProt P14780); assay: Inhibition constant (Ki) on MMP-9h; settings: read-out: Ki MMP-9h; human MMP-9
Text: as §1, §2

[7] = target: MMP-2h (Homo sapiens (Human), UniProt P08253); assay: Inhibition constant (Ki) on MMP-2h; settings: read-out: Ki MMP-2h; human MMP-2
Text: as §1, §2

[8] = target: MMP-13h (Homo sapiens (Human), UniProt P45452); assay: Inhibition constant (Ki) on MMP-13h; settings: read-out: Ki MMP-13h; human MMP-13
Text: as §1, §2

Chain of MMP-3h (P08254 100-477): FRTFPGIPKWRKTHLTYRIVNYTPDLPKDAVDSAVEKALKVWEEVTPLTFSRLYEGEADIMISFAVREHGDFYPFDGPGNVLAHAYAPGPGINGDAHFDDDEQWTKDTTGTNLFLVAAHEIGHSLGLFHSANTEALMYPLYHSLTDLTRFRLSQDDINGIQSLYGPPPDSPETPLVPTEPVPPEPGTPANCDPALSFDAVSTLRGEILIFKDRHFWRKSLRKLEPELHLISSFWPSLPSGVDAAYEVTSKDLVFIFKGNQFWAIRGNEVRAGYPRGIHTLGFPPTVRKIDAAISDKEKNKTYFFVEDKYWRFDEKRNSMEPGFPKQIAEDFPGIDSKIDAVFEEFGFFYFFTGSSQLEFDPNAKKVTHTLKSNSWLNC
Chain of MMP-10h (P09238 99-476): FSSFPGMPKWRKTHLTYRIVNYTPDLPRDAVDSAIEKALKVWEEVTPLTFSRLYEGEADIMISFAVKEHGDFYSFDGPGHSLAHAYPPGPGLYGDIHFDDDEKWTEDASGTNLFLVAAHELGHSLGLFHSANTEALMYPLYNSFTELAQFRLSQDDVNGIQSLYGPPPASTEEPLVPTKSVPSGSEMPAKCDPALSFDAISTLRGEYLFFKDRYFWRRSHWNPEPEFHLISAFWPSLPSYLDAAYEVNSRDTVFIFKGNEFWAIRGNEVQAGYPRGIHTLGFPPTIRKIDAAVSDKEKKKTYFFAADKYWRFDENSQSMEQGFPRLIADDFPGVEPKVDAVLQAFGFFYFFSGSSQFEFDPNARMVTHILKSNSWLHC
Chain of MMP-8h (P22894 101-467): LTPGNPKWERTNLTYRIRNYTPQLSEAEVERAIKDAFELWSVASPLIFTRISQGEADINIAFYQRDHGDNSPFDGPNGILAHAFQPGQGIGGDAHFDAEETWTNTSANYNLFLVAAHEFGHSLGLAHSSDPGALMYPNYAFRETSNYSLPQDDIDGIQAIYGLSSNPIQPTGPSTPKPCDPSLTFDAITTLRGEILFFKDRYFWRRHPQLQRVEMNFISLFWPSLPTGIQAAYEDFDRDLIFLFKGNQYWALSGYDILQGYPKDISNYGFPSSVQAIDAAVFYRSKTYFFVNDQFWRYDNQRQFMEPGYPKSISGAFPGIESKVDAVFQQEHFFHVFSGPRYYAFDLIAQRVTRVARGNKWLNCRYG
Chain of MMP-9h (P14780 94-707): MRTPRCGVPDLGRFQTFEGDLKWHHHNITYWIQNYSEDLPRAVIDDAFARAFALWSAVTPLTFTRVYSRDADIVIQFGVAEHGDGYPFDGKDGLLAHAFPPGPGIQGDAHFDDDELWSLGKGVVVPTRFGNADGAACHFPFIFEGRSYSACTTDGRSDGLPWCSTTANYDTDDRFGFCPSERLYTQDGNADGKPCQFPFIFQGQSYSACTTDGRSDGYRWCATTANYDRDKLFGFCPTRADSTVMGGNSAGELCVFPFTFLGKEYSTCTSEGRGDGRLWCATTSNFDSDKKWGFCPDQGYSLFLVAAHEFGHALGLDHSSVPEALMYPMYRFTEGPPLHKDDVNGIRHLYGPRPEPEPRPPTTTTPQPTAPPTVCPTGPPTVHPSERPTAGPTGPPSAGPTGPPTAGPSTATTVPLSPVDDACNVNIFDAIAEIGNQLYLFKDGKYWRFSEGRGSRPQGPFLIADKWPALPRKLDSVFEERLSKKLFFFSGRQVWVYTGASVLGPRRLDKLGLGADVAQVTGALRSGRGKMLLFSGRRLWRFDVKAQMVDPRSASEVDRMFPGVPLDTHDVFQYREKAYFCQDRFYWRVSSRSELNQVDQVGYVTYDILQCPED
Chain of MMP-2h (P08253 110-660): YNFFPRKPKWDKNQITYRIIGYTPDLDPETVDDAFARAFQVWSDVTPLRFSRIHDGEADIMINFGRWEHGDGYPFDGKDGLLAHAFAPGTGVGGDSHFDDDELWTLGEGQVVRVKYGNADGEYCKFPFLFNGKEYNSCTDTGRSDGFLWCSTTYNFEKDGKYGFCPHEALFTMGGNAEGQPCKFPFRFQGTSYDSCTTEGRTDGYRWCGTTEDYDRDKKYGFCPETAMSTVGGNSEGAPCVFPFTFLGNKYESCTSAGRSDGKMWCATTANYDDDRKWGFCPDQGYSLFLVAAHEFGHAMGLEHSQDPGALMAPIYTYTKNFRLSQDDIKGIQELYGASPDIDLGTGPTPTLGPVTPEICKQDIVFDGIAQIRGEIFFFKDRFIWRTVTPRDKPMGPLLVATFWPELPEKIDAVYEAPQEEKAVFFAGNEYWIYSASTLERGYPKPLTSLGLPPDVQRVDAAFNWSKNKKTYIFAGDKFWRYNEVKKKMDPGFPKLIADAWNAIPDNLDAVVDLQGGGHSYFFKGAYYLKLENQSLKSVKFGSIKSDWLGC
Chain of MMP-12h (P39900 106-470): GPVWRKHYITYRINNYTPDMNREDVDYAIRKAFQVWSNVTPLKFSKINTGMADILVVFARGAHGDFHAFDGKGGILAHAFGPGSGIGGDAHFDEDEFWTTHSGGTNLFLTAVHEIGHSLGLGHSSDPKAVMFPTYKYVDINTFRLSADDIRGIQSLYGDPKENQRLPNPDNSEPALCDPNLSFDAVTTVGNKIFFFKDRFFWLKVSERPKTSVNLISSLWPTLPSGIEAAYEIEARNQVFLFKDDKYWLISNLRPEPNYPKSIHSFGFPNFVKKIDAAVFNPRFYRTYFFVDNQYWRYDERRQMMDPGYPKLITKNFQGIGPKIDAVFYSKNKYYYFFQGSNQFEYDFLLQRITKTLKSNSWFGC

Structure (SMILES)	Ki [1]	Ki [2]	Ki [3]	Ki [4]	Ki [5]	Ki [6]	Ki [7]	Ki [8]
NC(=O)[C@H](CCC(=O)O)NC(=O)[C@H](CCC(=O)O)NC(=O)CCc1ccc(Oc2ccccc2)cc1 [Compound 28, (S)-5-amino-4-((S)-4-carboxy-2-(3-(4-phenoxyphenyl)propanamido)butanamido)-5-oxopentanoic acid]	> 1 µM	0.856 µM	> 1 µM	> 1 µM	> 5 µM	> 10 µM	> 1 µM	0.309 µM
NC(=O)[C@H](Cc1ccc(O)cc1)NC(=O)[C@H](CCC(=O)O)NC(=O)CCc1ccc(-c2ccccc2)cc1 [Compound 46, (S)-5-((S)-1-amino-3-(4-hydroxyphenyl)-1-oxopropan-2-ylamino)-4-(3-(biphenyl-4-yl)propanamido)-5-oxopentanoic acid]	> 1 µM	0.052 µM	> 5 µM	0.27 µM	> 10 µM	> 1 µM	0.632 µM	> 1 µM
NC(=O)CC[C@H](NC(=O)[C@H](CCC(N)=O)NC(=O)CCc1ccc(-c2ccccc2)cc1)C(N)=O [Compound 43, (S)-2-(3-(biphenyl-4-yl)propanamido)-N^1-((S)-1,5-diamino-1,5-dioxopentan-2-yl)pentanediamide]	> 5 µM	0.306 µM	> 5 µM	0.657 µM	> 1 µM	> 1 µM	0.319 µM	0.259 µM
O=C(O)CC[C@H](NC(=O)CCc1ccc(-c2ccc(-c3ccccc3)cc2)cc1)C(=O)Nc1cccc(CC(=O)O)c1 [Compound 71, (S)-5-(3-(carboxymethyl)phenylamino)-4-(3-(4′-phenylbiphenyl-4-yl)propanamido)-5-oxopentanoic acid]	0.0077 µM	0.00105 µM	0.696 µM	0.099 µM	0.034 µM	0.645 µM	0.0181 µM	0.0102 µM
NC(=O)[C@H](CCC(=O)O)NC(=O)[C@H](CCC(=O)O)NC(=O)CCc1ccc(-c2cccc(N)c2)cc1 [Compound 53, (S)-5-amino-4-((S)-2-(3-(3′-aminobiphenyl-4-yl)propanamido)-4-carboxybutanamido)-5-oxopentanoic acid]	> 1 µM	0.19 µM	> 1 µM	> 1 µM	> 1 µM	> 1 µM	> 1 µM	> 1 µM
NC(=O)[C@H](CCC(=O)O)NC(=O)[C@H](CC(=O)O)NC(=O)CCc1cc(-c2ccc(-c3ccccc3)cc2)no1 [Compound 17, (S)-5-amino-4-((S)-2-(3-(3-(biphenyl-4-yl)isoxazl-5-yl)propanamido)-3-carboxypropanamido)-5-oxopentanoic acid]	> 1 µM	0.053 µM	> 5 µM	> 1 µM	0.699 µM	> 1 µM	0.065 µM	0.036 µM
NC(=O)[C@H](CCC(=O)O)NC(=O)[C@H](CC(=O)O)NC(=O)CCc1ccc(-c2cc(-c3ccccc3)cs2)cc1 [Compound 100, (S)-5-amino-4-((S)-3-carboxy-2-(3-(4-(4-phenylthiophen-2-yl)phenyl)propanamido)propanamido)-5-oxopentanoic acid]	> 1 µM	0.0151 µM	> 1 µM	0.559 µM	> 1 µM	> 1 µM	0.862 µM	0.559 µM
NC(=O)[C@H](CCC(=O)O)NC(=O)[C@H](CC(=O)O)NC(=O)CCc1cc(-c2ccc(-c3cccc(Cl)c3)cc2)no1 [Compound 9, (S)-5-amino-4-((S)-3-carboxy-2-(3-(3-(3′-chlorobiphenyl-4-yl)isoxazol-5-yl)propanamido)propanamido)-5-oxopentanoic acid]	0.52 µM	0.064 µM	> 5 µM	0.899 µM	0.381 µM	> 1 µM	0.091 µM	0.035 µM
NC(=O)[C@H](CO)NC(=O)[C@H](CCC(=O)O)NC(=O)CCc1ccc(-c2ccc(-c3ccccc3)cc2)cc1 [Compound 68, (S)-5-((S)-1-amino-3-hydroxy-1-oxopropan-2-ylamino)-4-(3-(4′-phenylbiphenyl-4-yl)propanamido)-5-oxopentanoic acid]	0.071 µM	0.0035 µM	> 1 µM	0.227 µM	0.108 µM	> 1 µM	0.031 µM	0.0166 µM
NC(=O)[C@H](CC(=O)O)NC(=O)[C@H](CCC(=O)O)NC(=O)CCc1cc(-c2ccc(-c3cccc(Cl)c3)cc2)no1 [Compound 8, (S)-5-((S)-1-amino-3-carboxy-1-oxopropan-2-ylamino)-4-(3-(3-(3′-chlorobiphenyl-4-yl)isoxazol-5-yl)propanamido)-5-oxopentanoic acid]	0.035 µM	0.011 µM	> 1 µM	0.556 µM	0.243 µM	> 1 µM	0.112 µM	0.03 µM
NC(=O)[C@H](CCC(=O)O)NC(=O)[C@H](CO)NC(=O)CCc1ccc(-c2ccc(-c3ccccc3)cc2)cc1 [Compound 78, (S)-5-amino-4-((S)-3-hydroxy-2-(3-(4′-phenylbiphenyl-4-yl)propanamido)propanamido)-5-oxopentanoic acid]	> 5 µM	0.206 µM	> 1 µM	> 1 µM	0.116 µM	> 5 µM	0.729 µM	0.367 µM
NC(=O)[C@H](CCC(=O)O)NC(=O)[C@H](CCC(=O)O)NC(=O)CCc1ccc(-c2ccc(-c3nc4ccccc4s3)s2)cc1 [Compound 93, (S)-5-amino-4-((S)-2-(3-(4-(5-(benzo[d]thiazol-2-yl)thiophen-2-yl)phenyl)propanamido)-4-carboxybutanamido)-5-oxopentanoic acid]	0.0388 µM	0.017 µM	> 5 µM	0.307 µM	> 1 µM	> 1 µM	> 1 µM	0.033 µM
NC(=O)[C@H](CC(=O)O)NC(=O)[C@H](CCC(=O)O)NC(=O)CCc1ccc(-c2ccc(-c3ccccc3)cc2)cc1 [Compound 64, (S)-5-((S)-1-amino-3-carboxy-1-oxopropan-2-ylamino)-4-(3-(4′-phenylbiphenyl-4-yl)propanamido)-5-oxopentanoic acid]	0.035 µM	0.0033 µM	> 5 µM	0.287 µM	0.168 µM	> 1 µM	0.055 µM	0.023 µM
NC(=O)[C@H](CCC(=O)O)NC(=O)CCc1cc(-c2ccc(-c3cccc(Cl)c3)cc2)no1 [Compound 4, (S)-5-amino-4-(3-(3-(3′-chlorobiphenyl-4-yl)isoxazol-5-yl)propanamido)-5-oxopentanoic acid]	0.122 µM	0.0118 µM	> 1 µM	0.119 µM	0.118 µM	0.12 µM	0.09 µM	0.046 µM
NCCCC[C@H](NC(=O)[C@H](CCC(=O)O)NC(=O)CCc1ccc(-c2ccc(-c3ccccc3)cc2)cc1)C(N)=O [Compound 63, (S)-5-((S)-1,6-diamino-1-oxohexan-2-ylamino)-4-(3-(4′-phenylbiphenyl-4-yl)propanamido)-5-oxopentanoic acid]	0.447 µM	0.0143 µM	> 1 µM	0.621 µM	> 1 µM	> 1 µM	0.11 µM	0.055 µM
